Key:
FAAH = target: T1, FAAH (Mus musculus, UniProt O08914); assay: In vivo FAAH inhibition after oral dosing, remaining activity in liver homogenate (LVh, peripheral tissue); set-up: species or system NMRI mice; details: 8 h
T1 construct: A fragment of liver, left lung lobe and brain without cerebellum were removed; from tissue; host or cells: male NMRI mice; brain (without cerebellum) and liver homogenates
T1 sequence (O08914 1-579): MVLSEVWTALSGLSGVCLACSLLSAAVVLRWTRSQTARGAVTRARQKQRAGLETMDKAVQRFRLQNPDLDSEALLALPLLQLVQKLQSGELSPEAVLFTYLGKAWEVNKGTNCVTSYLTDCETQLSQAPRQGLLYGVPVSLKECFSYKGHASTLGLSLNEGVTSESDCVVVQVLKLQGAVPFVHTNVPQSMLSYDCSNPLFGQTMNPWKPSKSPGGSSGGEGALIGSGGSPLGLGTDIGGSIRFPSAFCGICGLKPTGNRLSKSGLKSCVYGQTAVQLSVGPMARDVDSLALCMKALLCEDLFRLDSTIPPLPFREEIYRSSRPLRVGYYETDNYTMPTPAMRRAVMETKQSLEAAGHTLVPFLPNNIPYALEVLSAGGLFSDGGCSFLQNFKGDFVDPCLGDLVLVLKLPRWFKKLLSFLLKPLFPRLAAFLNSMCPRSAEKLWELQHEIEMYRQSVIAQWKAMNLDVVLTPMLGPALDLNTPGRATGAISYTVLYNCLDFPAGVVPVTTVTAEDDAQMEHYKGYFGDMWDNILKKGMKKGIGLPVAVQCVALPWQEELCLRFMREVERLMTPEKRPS
Procedure, shortened: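 Remaining FAAH activity is given as % of vehicle-treated controls after blank subtraction, measured by radiolabelled AEA hydrolysis (2 μM AEA, 5 nM 3H-AEA, 37 °C) in brain (10 min) or liver (7 min) homogenates. These came from fasted male NMRI mice dosed orally at 30 or 3 mg/kg.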

carboxylesterase (CE) = assay: Carboxylesterase (CE) activity in rat liver microsomes (LVms), p-nitrophenyl acetate; format: biochemical; details: 10 uM compound, read 10 min after substrate, remaining CE activity
Description: (§1) FAAH inhibition was determined as described above. Inhibition of monoacylglycerol lipase (MAGL) and carboxylesterase (CE) was performed according to the protocols described below. The controls for both in vitro and in vivo were the reaction mix minus the test compounds. Therefore, a low value in Table 2 below for the test compounds indicates a strong inhibitor.
CE activity measurement is based on the formation of p-nitrophenol from p-nitrophenyl acetate. Briefly, in 96-well plates 8 μg/ml of rat or mouse liver microsomes (LVms) were incubated with 10 μM FAAH inhibitors for 15 min and then the substrate, p-nitrophenyl acetate, was added to a final concentration of 1 mM. The plate was read at 405 nm 10 min after substrate addition for the appearance of p-nitrophenol using a spectrophotometer. The carboxylesterase activity in microsome extracts without inhibitor added were set at 100% as control and the remaining CE activities after incubation with inhibitors were calculated relative to the control.

[1] = target: T2, monoacylglycerol lipase (MAGL) (Rattus norvegicus, UniProt Q8R431); assay: MAGL activity in rat cerebella cytosol (CRBcyt), hydrolysis of [3H] 2-OG; format: biochemical, WISTAR rats; details: 12.5 uM compound, remaining MAGL activity
T2 construct: cerebella cytosol (CRBcyt) fractions, previously obtained from adult WISTAR rats; from tissue; host or cells: adult Wistar rat cerebella, cytosol fraction
T2 sequence (Q8R431 1-303): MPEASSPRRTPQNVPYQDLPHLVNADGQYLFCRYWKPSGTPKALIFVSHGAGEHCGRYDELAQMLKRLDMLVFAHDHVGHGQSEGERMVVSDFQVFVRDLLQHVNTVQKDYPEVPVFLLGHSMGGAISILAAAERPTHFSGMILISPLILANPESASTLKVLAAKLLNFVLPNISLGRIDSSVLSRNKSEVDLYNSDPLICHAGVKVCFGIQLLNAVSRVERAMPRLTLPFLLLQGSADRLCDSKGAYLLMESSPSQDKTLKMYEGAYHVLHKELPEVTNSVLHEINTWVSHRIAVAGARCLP
Description: as §1
MAGL activity measurement was based on rate of hydrolysis of [^3H] 2-OG (glycerol labeled) as substrate. Briefly, cerebella cytosol (CRBcyt) fractions, previously obtained from adult WISTAR rats, were diluted to appropriate assay protein concentrations in Tris-HCl buffer (10 mM, pH 7.2) containing 1 mM EDTA, and were added to assay tubes containing test compound. Blanks contained assay buffer instead of cytosol samples were used as control. […] The final assay contained 0.125% w v^−1 fatty acid-free BSA. After the incubation phase, reactions were stopped by adding 400 μL chloroform:methanol (1/1 v v^−1), vortex mixing the tubes two times and placing them on ice. Phases were separated by centrifugation and 200 μL aliquots of the methanol/buffer phase were taken and tritium content assayed by liquid scintillation spectroscopy with quench correction.

COc1cccc(-c2cn(C(=O)N3CCCc4ccccc43)cn2)c1 [Compound 39, (3,4-dihydroquinolin-1(2H)-yl)(4-(3-methoxyphenyl)-1H-imidazol-1-yl)methanone]
FAAH LVh 3 mg · kg · 8 h (FAAH; in vivo, mouse liver, 3 mg/kg oral, remaining enzymatic activity): 101.1 % of control | In Vivo LVh 3 mg/kg 8 h, remaining FAAH activity (FAAH; liver homogenate, 3 mg/kg): 101.1 % of control | CE Rat LVms 10 uM 10 min (carboxylesterase (CE)): 94.7 % of control | MAGL Rat CRBcyto 12.5 uM 8 min [1]: 87 % of control

From US9353082B2, “Pharmaceutical compounds” (BIAL—PORTELA & CA, S.A., priority 2008, dated 2016)
